The target in the test is T1, hMAGL (Homo sapiens, UniProt Q99685).
T1 sequence (Q99685 1-303): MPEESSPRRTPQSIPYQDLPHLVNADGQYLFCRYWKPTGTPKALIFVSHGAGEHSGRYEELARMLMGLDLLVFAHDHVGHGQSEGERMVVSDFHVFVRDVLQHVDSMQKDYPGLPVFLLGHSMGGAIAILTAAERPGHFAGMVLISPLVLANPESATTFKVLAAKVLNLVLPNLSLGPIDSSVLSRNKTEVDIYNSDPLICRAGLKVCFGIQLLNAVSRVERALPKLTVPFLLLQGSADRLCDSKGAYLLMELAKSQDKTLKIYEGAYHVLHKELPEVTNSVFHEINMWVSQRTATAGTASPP
Kind of test: 2-AG assay: MAGL inhibition, hydrolysis of 2-arachidonoylglycerol to arachidonic acid followed by mass spectrometry. The class given is biochemical. The gist of the method: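 Read-out is LC-MS/MS of arachidonic acid released from 2-arachidonoylglycerol (8 μM final), normalised to d8-arachidonic acid internal standard after acetonitrile quench. Enzyme […] and compound were pre-mixed 15 min, then reacted 30 min, both at RT, in Tris/EDTA buffer with 0.01% Tween-20 and 2.5% DMSO.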

The values below come from patent US20260374756A1, “HETEROCYCLIC COMPOUNDS AS INHIBITORS OF MONOACYLGLYCEROL LIPASE (MAGL)” (Hoffmann-La Roche Inc., priority 2022, published 2026).

Regarding `O=C(N1CC2(CC(Cc3n[nH]c(C4CC4)n3)C2)C1)N1CC2(CC(n3cnc(C(F)(F)F)n3)C2)C1` [Example 303, [6-[(5-cyclopropyl-1H-1,2,4-triazol-3-yl)methyl]-2-azaspiro[3.3]heptan-2-yl]-[6-[3-(trifluoromethyl)-1,2,4-triazol-1-yl]-2-azaspiro[3.3]heptan-2-yl]methanone], half-maximal inhibition (IC50) was put at 9.41 nM.

With `O=C(N1CC2(CC(Cn3ccc(C(F)(F)F)n3)C2)C1)N1CC2(CC(n3cnc(C4(O)CC4)n3)C2)C1` [Example 293, [6-[3-(1-hydroxycyclopropyl)-1,2,4-triazol-1-yl]-2-azaspiro[3.3]heptan-2-yl]-[6-[[3-(trifluoromethyl)pyrazol-1-yl]methyl]-2-azaspiro[3.3]heptan-2-yl]methanone], the IC50 (commonly the concentration that gives 50% inhibition) stood at 5.1 nM. Then `Cc1cc(C(F)F)nn1CC1CC2(C1)CN(C(=O)N1CC3(CC(n4cnc(C(F)(F)F)n4)C3)C1)C2` [Example 94], with 0.4 nM. Molecule `Cn1c(CN2CC3(C2)CN(C(=O)N2CC4(CC(n5cnc(C6CC6)n5)C4)C2)C3)nnc1C(F)(F)F` [Example 322, [6-(3-cyclopropyl-1,2,4-triazol-1-yl)-2-azaspiro[3.3]heptan-2-yl]-[6-[[4-methyl-5-(trifluoromethyl)-1,2,4-triazol-3-yl]methyl]-2,6-diazaspiro[3.3]heptan-2-yl]methanone] had an IC50 of 46.7 nM.

In turn, `Cn1ncc(CN2CC3(C2)CN(C(=O)N2CC4(CC(c5cc(C6CC6)n[nH]5)C4)C2)C3)c1C(F)(F)F` [Example 163, [6-(3-cyclopropyl-1H-pyrazol-5-yl)-2-azaspiro[3.3]heptan-2-yl]-[6-[[1-methyl-5-(trifluoromethyl)pyrazol-4-yl]methyl]-2,6-diazaspiro[3.3]heptan-2-yl]methanone] came in with an IC50 of 3.3 nM. To `O=C(N1CC2(CCN(Cc3nc(C(F)(F)F)cs3)CC2)C1)N1CC2(CC(n3cnc(C(F)(F)F)n3)C2)C1` [Example 176, [7-[[4-(trifluoromethyl)thiazol-2-yl]methyl]-2,7-diazaspiro[3.5]nonan-2-yl]-[6-[3-(trifluoromethyl)-1,2,4-triazol-1-yl]-2-azaspiro[3.3]heptan-2-yl]methanone] belongs 44.8 nM; to `O=C(N1CC2(CC(n3cnc(C4CC4)n3)C2)C1)N1CC2(CN(Cc3cnn(CC(F)(F)F)c3)C2)C1` [Example 110, [6-(3-cyclopropyl-1,2,4-triazol-1-yl)-2-azaspiro[3.3]heptan-2-yl]-[6-[[1-(2,2,2-trifluoroethyl)pyrazol-4-yl]methyl]-2,6-diazaspiro[3.3]heptan-2-yl]methanone], 328 nM; to `O=C(N1CC2(CC(Cn3cc(C(F)(F)F)nn3)C2)C1)N1CC2(CC(n3cnc(C4CC4)n3)C2)C1` [Example 104, [6-(3-cyclopropyl-1,2,4-triazol-1-yl)-2-azaspiro[3.3]heptan-2-yl]-[6-[[4-(trifluoromethyl)triazol-1-yl]methyl]-2-azaspiro[3.3]heptan-2-yl]methanone], 1.45 nM. Take `O=C(N1CC2(CC(n3cnc(C4CC4)n3)C2)C1)N1CC2(CN(Cc3nnc(C(F)(F)F)s3)C2)C1` [Example 83, [6-(3-cyclopropyl-1,2,4-triazol-1-yl)-2-azaspiro[3.3]heptan-2-yl]-[6-[[5-(trifluoromethyl)-1,3,4-thiadiazol-2-yl]methyl]-2,6-diazaspiro[3.3]heptan-2-yl]methanone]: the IC50 stood at 66.8 nM.

Regarding `O=C(N1CC2(CC(n3cnc(C(F)F)n3)C2)C1)N1CC2(CN(Cc3cc(C(F)(F)F)n[nH]3)C2)C1` [Example 311, [6-[3-(difluoromethyl)-1,2,4-triazol-1-yl]-2-azaspiro[3.3]heptan-2-yl]-[6-[[3-(trifluoromethyl)-1H-pyrazol-5-yl]methyl]-2,6-diazaspiro[3.3]heptan-2-yl]methanone], it took 190 nM to reach half-maximal inhibition (IC50).

In turn, `Cn1cc(C(F)(F)F)c(CC2CC3(C2)CN(C(=O)N2CC4(CC(n5cnc(C6(O)CC6)n5)C4)C2)C3)n1` [Example 289, [6-[3-(1-hydroxycyclopropyl)-1,2,4-triazol-1-yl]-2-azaspiro[3.3]heptan-2-yl]-[6-[[1-methyl-4-(trifluoromethyl)pyrazol-3-yl]methyl]-2-azaspiro[3.3]heptan-2-yl]methanone] gave an IC50 of 2.9 nM. `O=C(N1CC2(CC(Cc3nc(C(F)(F)F)c[nH]3)C2)C1)N1CC2(CC(n3cnc(C4(O)CC4)n3)C2)C1` [Example 337, [6-[3-(1-hydroxycyclopropyl)-1,2,4-triazol-1-yl]-2-azaspiro[3.3]heptan-2-yl]-[6-[[4-(trifluoromethyl)-1H-imidazol-2-yl]methyl]-2-azaspiro [3.3]heptan-2-yl]methanone] had an IC50 of 6.12 nM.

With `O=C(N1CC2(CC(n3cnc(C(F)(F)F)n3)C2)C1)N1CC2(CN(Cc3nc(C4(C(F)(F)F)CC4)no3)C2)C1` [Example 328, [6-[[3-[1-(trifluoromethyl)cyclopropyl]-1,2,4-oxadiazol-5-yl]methyl]-2,6-diazaspiro[3.3]heptan-2-yl]-[6-[3-(trifluoromethyl)-1,2,4-triazol-1-yl]-2-azaspiro[3.3]heptan-2-yl]methanone], 15 nM corresponded to half-maximal inhibition (IC50). Then `O=C(N1CC2(CC(Cc3n[nH]c(C4(C(F)(F)F)CC4)n3)C2)C1)N1CC2(CC(n3cnc(C4CC4)n3)C2)C1` [Example 102, [6-(3-cyclopropyl-1,2,4-triazol-1-yl)-2-azaspiro[3.3]heptan-2-yl]-[6-[[5-[1-(trifluoromethyl)cyclopropyl]-1H-1,2,4-triazol-3-yl]methyl]-2-azaspiro[3.3]heptan-2-yl]methanone], with 0.58 nM; and `N=S(=O)(c1cnn(CC2CC3(C2)CN(C(=O)N2CC4(CC(n5cnc(C(F)F)n5)C4)C2)C3)c1)C(F)(F)F` (stereo not shown) [Example 324, [6-[3-(difluoromethyl)-1,2,4-triazol-1-yl]-2-azaspiro[3.3]heptan-2-yl]-[6-[[4-(trifluoromethylsulfonimidoyl)pyrazol-1-yl]methyl]-2-azaspiro[3.3]heptan-2-yl]methanone], with 25.6 nM.

With `Cn1nc(C2CC2)cc1CN1CC2(C1)CN(C(=O)N1CC3(CC(n4cnc(C(F)(F)F)n4)C3)C1)C2` [Example 271], the IC50 was 14.8 nM. To `O=C(N1CC2(CC(c3cc(C4CC4)n[nH]3)C2)C1)N1CC2(CN(Cc3nc(C(F)(F)F)no3)C2)C1` [Example 171, [6-(3-cyclopropyl-1H-pyrazol-5-yl)-2-azaspiro[3.3]heptan-2-yl]-[6-[[3-(trifluoromethyl)-1,2,4-oxadiazol-5-yl]methyl]-2,6-diazaspiro[3.3]heptan-2-yl]methanone] belongs 9.95 nM; to `Cn1ncc(CN2CC3(C2)CN(C(=O)N2CC4(CC(n5cnc(C6CC6)n5)C4)C2)C3)c1C(F)(F)F` [Example 165, [6-(3-cyclopropyl-1,2,4-triazol-1-yl)-2-azaspiro[3.3]heptan-2-yl]-[6-[[1-methyl-5-(trifluoromethyl)pyrazol-4-yl]methyl]-2,6-diazaspiro[3.3]heptan-2-yl]methanone], 4.46 nM. `O=C(N1CC2(CC(n3cnc(C(F)(F)F)n3)C2)C1)N1CC2(CN(Cc3cc(C(F)(F)F)on3)C2)C1` [Example 189, [6-[[5-(trifluoromethyl)isoxazol-3-yl]methyl]-2,6-diazaspiro[3.3]heptan-2-yl]-[6-[3-(trifluoromethyl)-1,2,4-triazol-1-yl]-2-azaspiro[3.3]heptan-2-yl]methanone] displayed an IC50 of 50.1 nM.

`O=C(N1CC2(CC(Oc3cnn(CC(F)(F)F)c3)C2)C1)N1CC2(CC(c3cc(C4CC4)n[nH]3)C2)C1` [Example 248, [6-(3-cyclopropyl-1H-pyrazol-5-yl)-2-azaspiro[3.3]heptan-2-yl]-[6-[1-(2,2,2-trifluoroethyl)pyrazol-4-yl]oxy-2-azaspiro[3.3]heptan-2-yl]methanone] registered an IC50 of 19 nM. To `O=C(N1CC2(CC(n3cnc(C4CC4)n3)C2)C1)N1CC2(CN(Cc3nc(C(F)(F)F)co3)C2)C1` [Example 217, [6-(3-cyclopropyl-1,2,4-triazol-1-yl)-2-azaspiro[3.3]heptan-2-yl]-[6-[[4-(trifluoromethyl)oxazol-2-yl]methyl]-2,6-diazaspiro[3.3]heptan-2-yl]methanone] belongs 13.7 nM; to `O=C(N1CC2(CC(Oc3nc(C(F)(F)F)cs3)C2)C1)N1CC2(CC(n3cnc(C4(O)CC4)n3)C2)C1` [Example 13, [6-[3-(1-hydroxycyclopropyl)-1,2,4-triazol-1-yl]-2-azaspiro[3.3]heptan-2-yl]-[6-[4-(trifluoromethyl)thiazol-2-yl]oxy-2-azaspiro[3.3]heptan-2-yl]methanone], 14.9 nM. In turn, `O=C(N1CC2(CC(Cc3noc(C(F)(F)F)n3)C2)C1)N1CC2(CC(n3cnc(C4(O)CC4)n3)C2)C1` [Example 105] registered an IC50 of 14.1 nM. To `O=C(N1CC2(CC(Cc3nc(CC(F)(F)F)n[nH]3)C2)C1)N1CC2(CC(n3cnc(C(F)F)n3)C2)C1` [Example 316, [6-[3-(difluoromethyl)-1,2,4-triazol-1-yl]-2-azaspiro[3.3]heptan-2-yl]-[6-[[3-(2,2,2-trifluoroethyl)-1H-1,2,4-triazol-5-yl]methyl]-2-azaspiro[3.3]heptan-2-yl]methanone] belongs 69.4 nM; to `O=C(N1CC2(CC(n3cnc(C(F)(F)F)n3)C2)C1)N1CC2(CN(Cc3nc(CC4CC4)no3)C2)C1` [Example 264, [6-[[3-(cyclopropylmethyl)-1,2,4-oxadiazol-5-yl]methyl]-2,6-diazaspiro[3.3]heptan-2-yl]-[6-[3-(trifluoromethyl)-1,2,4-triazol-1-yl]-2-azaspiro[3.3]heptan-2-yl]methanone], 76.3 nM.
